Assay results: US12162858B2, “Quinoline derivatives as inhibitors of AXL/MER RTK and CSF1R” (QURIENT CO., LTD., priority 2018, dated 2024)
Where two headings read alike, the source gives them in different places.

Legend:
CSF1R (M-NFS-60 cells) = assay: Cell Titer-Glo viability assay using M-NFS-60 cells; type: cell-based; settings: Mus musculus, read-out: Cellular CSF1R activity by M-NFS-60 viability assay (IC50 activity range)
Experimental: M-NFS-60 cells were cultured in RPMI-1640 medium containing 10% FBS, 0.05 mM 2-Mercaptoethanol, penicillin (100 U/ml)/streptomycin ([…]) and supplemented with 62 ng/ml recombinant human M-CSF at 37° C./5% CO2. Aliquots of the cells were seeded into a 96-well plate (2×10^5 cells in 100 μl/well) and then incubated at 37° C./5% CO2 1 h. Dissolve compound in 100% DMSO to make 10 mM stock solutions (Aliquots stored in the Nitrogen Cabinet). Dilute 10 mM compounds solutions for 2-fold in 100% DMSO to get 5 mM solutions (10 μl+10 μl DMSO), and then make a 3-fold serial dilution (10 μl+20 μl DMSO) for 10 doses. For reference compounds: Dilute 10 mM compounds solutions for 20-fold in 100% DMSO to get 0.5 mM solutions (2 μl+38 μl DMSO), and then make a 3-fold serial dilution (10 μl+20 μl DMSO) for 8 doses. The 96-well plate was equilibrated at room temperature for 30 min. 50 μl of CellTiter-Glo® Reagent added to each well and mixed for 2 min on an orbital shaker to induce cell lysis. The 96-well plate was incubated at room temperature for 10 min to stabilize luminescent signal. Luminescent was measured […] by EnVison plate reader. Calculations and Formulas: The following calculations and formulas are used for data analysis using XL Fit software: The curve fitting was made using the Sigmoidal Dose-Response Model (Fit model, 205).

Axl = biological target: T1, Axl (Homo sapiens, UniProt P30530); assay: Cellular Axl inhibition ELISA (p-Axl, Gas6-induced) using H1299 cells; type: cell-based; design: especially H1299 cell endogenously expresses Axl; endogenous in cells; host or cells: H1299
T1 sequence (P30530 26-894): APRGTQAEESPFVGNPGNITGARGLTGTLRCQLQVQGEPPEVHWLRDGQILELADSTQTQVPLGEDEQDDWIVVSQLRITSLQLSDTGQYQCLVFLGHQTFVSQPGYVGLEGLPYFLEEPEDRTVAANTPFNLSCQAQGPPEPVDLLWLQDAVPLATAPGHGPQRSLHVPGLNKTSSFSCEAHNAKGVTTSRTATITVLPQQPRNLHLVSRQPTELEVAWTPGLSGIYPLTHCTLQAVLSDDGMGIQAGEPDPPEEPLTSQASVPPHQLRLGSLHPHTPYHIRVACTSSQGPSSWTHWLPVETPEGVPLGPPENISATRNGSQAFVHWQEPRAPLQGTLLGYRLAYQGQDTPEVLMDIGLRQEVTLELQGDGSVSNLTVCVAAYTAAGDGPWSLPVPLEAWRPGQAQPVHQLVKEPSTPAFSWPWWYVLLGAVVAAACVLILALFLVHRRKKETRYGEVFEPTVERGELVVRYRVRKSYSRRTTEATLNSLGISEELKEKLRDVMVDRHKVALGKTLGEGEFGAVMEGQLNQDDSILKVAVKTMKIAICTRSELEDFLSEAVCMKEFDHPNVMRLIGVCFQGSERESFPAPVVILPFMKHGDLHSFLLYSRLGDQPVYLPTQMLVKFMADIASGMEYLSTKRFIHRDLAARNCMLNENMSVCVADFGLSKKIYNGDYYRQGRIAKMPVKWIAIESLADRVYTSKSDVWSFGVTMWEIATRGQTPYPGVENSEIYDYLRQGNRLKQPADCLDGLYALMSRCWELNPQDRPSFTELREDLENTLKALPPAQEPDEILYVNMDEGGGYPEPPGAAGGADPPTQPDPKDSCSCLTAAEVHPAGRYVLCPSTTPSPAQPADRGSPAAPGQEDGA
Experimental: Axl is expressed in several of malignant cancer cells; especially H1299 cell endogenously expresses Axl; and an increased phosphorylation of Axl (p-Axl) can be observed, when induced by the Axl ligand, Ga6.
The H1299 cells should be 40-80% confluent in the cell culture flask. Then cells are washed with DPBS and trypsinized. After centrifugation, the cell pellet is re-suspended with pre-warmed culture medium (RPMI1640, 10% FBS) and cells are separated by pipetting 6 times up and down with a 10 ml serological pipette. The cell suspension was diluted to a final concentration of 1.25×10^5 cells/ml. Then 80 μl/well cell suspension is added to the plate. Cell-plates are incubated at 37° C./5% CO2 overnight. Compounds were dissolved by DMSO to 10 mM, and kept in nitrogen cabinet. Prepare the compounds stock plate, the reference compounds concentration starts at 0.50 mM (5 μl+95 μl DMSO), and the tested compounds start at 1.5 mM (6 μl+34 μl DMSO); Then make a 3-fold dilution series (10 doses) compounds. Then dilute compounds by the medium in the mid plate (2 μl compounds+198 μl medium). Transfer 20 μl diluted compounds from mid plate to the cell coated plate. Cell-plates are incubated at 37° C./5% CO2 for 24 h. Add 25 μl of Human Gas6 (1000 ng/ml) to 96-well plate; the final concentration of Human Gas6 is 200 ng/ml. Incubate the plates at 37° C./5% CO2 for 1 h. Remove medium and wash cells once with 300 ul/well ice-cold 1×PBS. Then remove PBS and add 100 μl/well ice-cold 1× Cell Lysis Buffer to 96-well plate. The plate is shaken for 40 min at 4° C. Then plates can be stored at −20° C. After the micro-wells strips have reached room temperature, break off the required number of micro-wells. Place the micro-wells in the strip holder. Unused micro-wells must be resealed and stored at 4° C. immediately. Add 60 μl of cell lysate to the appropriate well. Seal with tape and press firmly onto top of micro-wells. Incubate the plate at 37° C. for 2 h. Gently remove the tape and wash wells 5 times with 1× Wash Buffer, 300 μl each time for each well. Add 100 μl of reconstituted Detection Antibody (green color) to each well. Seal with tape and incubate the plate at 37° C. for 1 h. Repeat wash procedure. Add 100 μl of reconstituted HRP Linked secondary antibody to each well. Seal with tape and incubate the plate at 37° C. for 30 min. Repeat wash procedure. Add 100 μl of TMB Substrate to each well. Seal with tape and incubate the plate at 37° C. for 15 min. Add 100 μl of STOP Solution to each well. Shake gently for a few seconds. Read absorbance at 450 nm within 30 min after adding STOP Solution. Calculations and Formulas: The following calculations and formulas are used for data analysis using XL Fit software: The curve fitting was made using the Sigmoidal Dose-Response Model (Fit model, 205).

[1] = read-out: Cellular Axl activity by H1299 Elisa (IC50)

IC50 (Axl; [1]) [nM]	IC50 (Axl; Elisa, comparison of compounds of present invention (**) vs compounds of WO2016/166250 (*), read-out: Cellular activity Axl (H1299) (IC50)) [nM]	SMILES	IC50 (CSF1R (M-NFS-60 cells)) [nM]
≥ 1000		COc1cc2nccc(Oc3ccc(NC(=O)c4nn(C5CCN(C)C5)cc4OCC(F)(F)F)cn3)c2cc1OC (stereo not shown) [Compound 133]	1000 to 10000
< 500		COc1cc2nccc(Oc3ccc(NC(=O)c4nn(CC5COC5)cc4OCC(F)(F)F)cc3)c2cc1OC [Compound 101]	1000 to 10000
≥ 1000		COc1cc2nccc(Oc3ccc(NC(=O)c4nn(C)cc4OCC(F)(F)F)nn3)c2cc1OC [Compound 102]	1000 to 10000
< 500		COc1cc2nccc(Oc3ccc(NC(=O)c4nn(C5CC5)cc4OCC(F)F)nc3)c2cc1OC [Compound 109]	< 1000
≥ 1000		COc1cc2nccc(Oc3ccc(NC(=O)c4nn(CCOC5CC5)cc4OCC(F)(F)F)cn3)c2cc1OC [Compound 130]	1000 to 10000
< 500		CCCn1cc(OCC2COC2)c(C(=O)Nc2ccc(Oc3ccnc4cc(OC)c(OC)cc34)cn2)n1 [Compound 106]	< 1000
< 500		COc1cc2nccc(Oc3ccc(NC(=O)c4nn(CCOC5CC5)cc4OCC(F)(F)F)cc3F)c2cc1OC [Compound 116]	1000 to 10000
500 to 1000		CNCCn1cc(OCC(F)(F)F)c(C(=O)Nc2ccc(Oc3ccnc4cc(OC)c(OC)cc34)cc2F)n1 [Compound 154]	1000 to 10000
< 500		CNCCn1cc(OCC(F)(F)F)c(C(=O)Nc2ccc(Oc3ccnc4cc(OC)c(OC)cc34)cn2)n1 [Compound 11]	< 1000
≥ 1000		CNCCOc1cn(C2CC2)nc1C(=O)Nc1ccc(Oc2ccnc3cc(OC)c(OC)cc23)cn1 [Compound 141]	≥ 10000
< 500		CCn1cc(OC(C)C)c(C(=O)Nc2ccc(Oc3ccnc4cc(OC)c(OC)cc34)cn2)n1 [Compound 6]	< 1000
< 500		CCCn1cc(OCC2CCOCC2)c(C(=O)Nc2ccc(Oc3ccnc4cc(OC)c(OC)cc34)cn2)n1 [Compound 164]	≥ 10000
< 500		COc1cc2nccc(Oc3ccc(NC(=O)c4nn(CC5COC5)cc4OCC(F)(F)F)cc3F)c2cc1OC [Compound 97]	1000 to 10000
< 500		COc1cc2nccc(Oc3ccc(NC(=O)c4nn(CCOC5CC5)cc4OCC(F)(F)F)c(F)c3)c2cc1OC [Compound 115]	1000 to 10000
< 500		COc1cc2nccc(Oc3ccc(NC(=O)c4nn(C5CC5)cc4OCCF)nn3)c2cc1OC [Compound 113]	1000 to 10000
< 500		COc1cc2nccc(Oc3ccc(NC(=O)c4nn(CC5COC5)cc4OCC(F)(F)F)cc3C)c2cc1OC [Compound 99]	1000 to 10000
500 to 1000		COCCn1cc(OCC(F)(F)F)c(C(=O)Nc2ccc(Oc3ccnc4cc(OC)c(OC)cc34)nc2)n1 [Compound 104]	≥ 10000

IC50 (Axl; [1]) [nM]	IC50 (Axl; Elisa, comparison of compounds of present invention (**) vs compounds of WO2016/166250 (*), read-out: Cellular activity Axl (H1299) (IC50)) [nM]	SMILES	IC50 (CSF1R (M-NFS-60 cells)) [nM]
≥ 1000		CNCCn1cc(OCC(F)(F)F)c(C(=O)Nc2ccc(Oc3ccnc4cc(OC)c(OC)cc34)nn2)n1 [Compound 127]	≥ 10000
< 500		COCCn1cc(OCC(F)(F)F)c(C(=O)Nc2ccc(Oc3ccnc4cc(OC)c(OC)cc34)nn2)n1 [Compound 126]	1000 to 10000
< 500		COc1cc2nccc(Oc3ccc(NC(=O)c4nn(CC5COC5)cc4OCC(F)(F)F)cn3)c2cc1OC [Compound 134]	≥ 10000
≥ 1000		COc1cc2nccc(Oc3ccc(NC(=O)c4nn(CC(C)O)cc4OCC(F)(F)F)cn3)c2cc1OC (stereo not shown) [Compound 136]	1000 to 10000
< 500		COc1cc2nccc(Oc3ccc(NC(=O)c4nn(C5CC5)cc4OCC(F)(F)F)nn3)c2cc1OC [Compound 112]	1000 to 10000
< 500		CCn1cc(OCC2CCC2)c(C(=O)Nc2ccc(Oc3ccnc4cc(OC)c(OC)cc34)cn2)n1 [Compound 8]	< 1000
< 500		COc1cc2nccc(Oc3ccc(NC(=O)c4nn(C5CCOC5)cc4OCC(F)(F)F)cn3)c2cc1OC (stereo not shown) [Compound 138]	1000 to 10000
< 500		COc1cc2nccc(Oc3ccc(NC(=O)c4nn(CCN(C)C)cc4OCC(F)(F)F)nc3)c2cc1OC [Compound 9]	< 1000
< 500		CCCn1cc(OCC(F)(F)F)c(C(=O)Nc2ccc(Oc3ccnc4cc(OC)c(OC)cc34)c(C(F)(F)F)c2)n1 [Compound 114]	1000 to 10000
< 500		COCCOc1cn(CC(C)O)nc1C(=O)Nc1ccc(Oc2ccnc3cc(OC)c(OC)cc23)cn1 (stereo not shown) [Compound 150]	1000 to 10000
< 500	44	COc1cc2nccc(Oc3ccc(NC(=O)c4n[nH]cc4OCC(F)(F)F)nc3)c2cc1OC [Compound 16]	< 1000
≥ 1000		CCCn1cc(OCCNC)c(C(=O)Nc2ccc(Oc3ccnc4cc(OC)c(OC)cc34)cn2)n1 [Compound 140]	1000 to 10000
≥ 1000		COc1cc2nccc(Oc3ccc(NC(=O)c4nn(C5CCNC5)cc4OCC(F)(F)F)cn3)c2cc1OC (stereo not shown) [Compound 132]	≥ 10000
< 500		CCCn1cc(OCC(F)(F)F)c(C(=O)Nc2ccc(Oc3ccnc4cc(OC)c(OC)cc34)cn2)n1 [Compound 7]	< 1000
< 500		COc1cc2nccc(Oc3ccc(NC(=O)c4nn(C5CCCC5)cc4OCC(F)(F)F)nn3)c2cc1OC [Compound 121]	< 1000
≥ 1000		CNCCn1cc(OCC(F)(F)F)c(C(=O)Nc2ccc(Oc3ccnc4cc(OC)c(OC)cc34)nc2)n1 [Compound 137]	1000 to 10000
